Data: patent US20080108513A1, “Cellular Arrays” (Northwestern University, priority 2006, published 2008)

Target: T1, ERα (Homo sapiens, UniProt P03372)
T1 sequence (P03372 1-595): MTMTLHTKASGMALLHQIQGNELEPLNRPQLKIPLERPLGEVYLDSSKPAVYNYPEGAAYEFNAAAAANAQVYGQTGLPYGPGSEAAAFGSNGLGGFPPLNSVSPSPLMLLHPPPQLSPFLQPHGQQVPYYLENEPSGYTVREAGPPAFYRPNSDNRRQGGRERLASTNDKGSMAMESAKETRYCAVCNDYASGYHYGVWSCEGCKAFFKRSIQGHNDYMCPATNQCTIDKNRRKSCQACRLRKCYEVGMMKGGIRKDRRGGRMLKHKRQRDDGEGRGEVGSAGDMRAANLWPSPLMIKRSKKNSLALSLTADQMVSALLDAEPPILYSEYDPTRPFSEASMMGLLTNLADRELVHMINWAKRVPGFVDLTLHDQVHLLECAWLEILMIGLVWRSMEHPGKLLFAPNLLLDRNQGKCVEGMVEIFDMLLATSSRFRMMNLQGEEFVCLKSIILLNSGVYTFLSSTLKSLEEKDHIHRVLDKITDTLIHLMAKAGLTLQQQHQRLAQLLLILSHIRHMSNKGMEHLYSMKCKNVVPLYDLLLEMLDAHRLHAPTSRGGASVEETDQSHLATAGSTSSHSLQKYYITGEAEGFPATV

C[C@]12CC[C@@H]3c4ccc(O)cc4C[C@@H](CCCCCCCCC[S+]([O-])CCCC(F)(F)C(F)(F)F)[C@H]3[C@@H]1CC[C@@H]2O (some centres unmarked) [FUL, fulvestrant]
blockade of ERα-stimulated activity by E2 (10^−6 M FUL with 10^−9 M E2, MCF-7 cells on array): complete blockade
effect on expression of the pLUC plasmid (CMV promoter) (MCF-7 cells on array, 10^−9 M E2 or 10^−9 M E2+10^−6 M FUL): lowered
